Results taken from patent publication US4612330A, “Antiinflammatory method” (Eli Lilly and Company, priority 1985, dated 1986).

Columns and labels:
[1] = test system: hind paws of rats; assay: carrageenin-induced edema test; assay type: in vivo; settings: for inhibition of paw swelling: 50 mg/kg, administered prior to carrageenin, vs contralateral (control) paws; for anti-inflammatory activity (in words): carrageenin-induced edema, rats
Description: It has now been discovered that Punaglandin-1 and -2 are useful in the treatment of inflammation and arthritis in mammals. […] A. Winter, Proc. Soc. Exp. Biol. Med., 111, 544 (1962). In this method, inflammation is induced by injecting carrageenin into one of the hind paws of rats. Test compounds were administered prior to the carrageenin injection to determine the percent inhibition of the subsequent inflammation, in comparison with the animals' contralateral (control) paws.

[2] = test system: adjuvant-induced arthritis in rats, uninjected hind paw; assay: Developing adjuvant-induced arthritis test in rats: uninjected hind paw volume; assay type: in vivo, male Lewis-Wistar rats; settings: 10 mg/kg I.P. × 29 daily doses; difference of areas under the curves of mean uninjected paw volumes, TB controls vs treated

CC/C=C\C/C=C\CC1(O)C=C(Cl)C(=O)C1C(OC(C)=O)C(OC(C)=O)C(CCCC(=O)OC)OC(C)=O (centres unmarked) [Punaglandin-1, 5,6,7-tris(acetyloxy)-7-(4-chloro-2-hydroxy-2-[2(Z),5(Z)-octadienyl]-5-oxo-3-cyclopenten-1-yl)heptanoic acid, methyl ester]
inhibition of paw swelling ([1]; intraperitoneal): 79.6%
inhibition of paw swelling ([1]; subcutaneous): 62.1%
anti-inflammatory activity (in words) [1]: anti-inflammatory activity
% Inhibition of Uninjected Paw Volume Inflammation, Days 16 through 30 [2]: 56.7%

CCCCC/C=C\CC1(O)C=C(Cl)C(=O)C1C(OC(C)=O)C(OC(C)=O)C(CCCC(=O)OC)OC(C)=O (centres unmarked) [Punaglandin-2, 5,6,7-tris(acetyloxy)-7-(4-chloro-2-hydroxy-2-[2-(Z)-octenyl]-5-oxo-3-cyclopenten-1-yl)heptanoic acid, methyl ester]
anti-inflammatory activity (in words) [1]: anti-inflammatory activity
